*1 amine or outer side, *2 acyl side, *3 side chain or, on linkers, in order; H or OH if unused. Where a SMILES comes first, the peptide text is derived from it. [ ]: non-standard residue; d: D form. dAla(ψthiazole) = C[C@@H](N[*:1])c1nc(C(=O)[*:2])cs1; Trp(4-Br) = N[C@@H](Cc1c[nH]c2cccc(Br)c12)C(=O)O; Dhb = C/C=C(\N)C(=O)O; Sar = CNCC(=O)O
Legend:
[1] = tested on: Proteus mirabilis DSM 30116
[2] = tested on: Pseudomonas aeruginosa ATCC 27853
[3] = tested on: Corynebacterium striatium NCTC 764
[4] = tested on: Escherichia coli ATCC 25922
[5] = tested on: Citrobacter koseri Clinical

Compound: C/C=C1\NC(=O)[C@@H](C)NC(=O)CNC(=O)[C@H](Cc2c[nH]c3cccc(Br)c23)NC(=O)[C@H](Cc2c[nH]c3ccccc23)NC(=O)c2csc(n2)[C@@H](C)NC(=O)CN(C)C1=O [Compound 10, Cyclo[D-Ala-Thz-Trp-Trp(4-Br)-Gly-D-Ala-Dhb-Sar]] (cyclo([Dhb][Sar][dAla(ψthiazole)]W[Trp(4-Br)]G[dA]))
- MIC [1]: >64 µg/mL
- activity against P. aeruginosa in comparison to the Dha containing compound 3 (P. aeruginosa PAO1; PAO1): three-fold increase in activity
- IC50 (P. aeruginosa PAO1; PAO1, 13 h): 3.7 ± 1 µM
- % Growth inhibition at 100 μM (P. aeruginosa PAO1; PAO1, 13 h, 100): 90.6 ± 1.3%
- times more potent than Argyrin A (P. aeruginosa PAO1; against P. aeruginosa): 4 to 5
- MIC [2]: >64 µg/mL
- MIC [3]: >64 µg/mL
- MIC [4]: >64 µg/mL
- MIC [5]: >64 µg/mL

Source: US11192888B2, “Antibacterial compounds” (priority 2017, dated 2021)
